{"source": "patent US10682328B2", "about": "“Compositions and methods for treatment of retinal degenerative diseases” (MOR RESEARCH APPLICATIONS LTD., priority 2014, dated 2020)", "type_in_all_cases": "cell-based, human", "key": {"RPE cells (ARPE-19) [1]": {"tested_on": "RPE cells (ARPE-19)", "assay": "FACS cell-cycle phase analysis by DNA content (FL2A)", "protocol": "(§1) Double-staining (annexin and propidium iodide (PI)) assay of RPE cells. RPE cells (ARPE-19, available from ATCC) were treated for one hour with the TAK1 inhibitor {5Z-7-oxozeaenol (1 μM)}, following 200 μM H2O2 for one hour or left untreated. The cells were then washed with fresh medium and after 24 hours were trypsinized, stained, and analyzed by FACS. The percentage of cells in each cell-cycle phase (G1/G0, S, and G2/M) was determined by its DNA content (FL2A).\nTo examine the effect of TAK1 inhibition on the RPE cell cycle, RPE cells were treated with TAK1 inhibitor, with or without H2O2. The RPE cells are quiescent and mostly located at the G0/G1 stage (FIGS. 1B and 1C), however, following TAK1 inhibition the percentage of cells at the G0/G1 stage increased to 89% of the total number. […] This phenomenon was reduced upon TAK1 inhibition prior to the oxidative stress (FIGS. 1B and C). The Cell cycle arrest at G0/G1 upon TAK1-inhibition was further supported by the reduction in proliferation of RPE cells observed in the presence of the TAK1 inhibitor (FIG. 1D)."}, "RPE cells (ARPE-19) [2]": {"tested_on": "RPE cells (ARPE-19)", "assay": "Annexin and propidium iodide double-staining FACS assay of RPE cells (apoptosis)", "protocol": "as §1\nThe role of TAK1 in the inflammatory response is characterized (12, 13), but little is known about its participation in the response of RPE cells to stress. RPE cells were treated with the TAK1 inhibitor 5Z-7-oxozeaenol (1 μM) for 1 hour before further treatment with H2O2 (200 μM). […] In contrast, in cells treated with the TAK1 inhibitor prior to their treatment with H2O2 the number apoptotic cells was 24% (FIG. 1A). The number of cells in the late apoptosis section of each FACS chart (annexin and Pi, upper right panel) was similar with or without TAK1 inhibitor."}, "ARPE-19 cells": {"tested_on": "ARPE-19 cells", "assay": "XTT cell viability / proliferation assay", "protocol": "Cell viability assays ARPE-19 cells were seeded in 96-well plates (5000 cells/well) in full medium and were pretreated with the TAK1 inhibitor 5Z-7-oxozeaenol (1 μM) or left untreated for 1 hour. Their viability was then assayed by the XTT assay (cell proliferation kit cat #20-300-1000; Beit Haemek, Israel)."}, "p53, phospho-p38": {"tested_on": "p53, phospho-p38", "assay": "Western blot of p53 and phospho-p38 in RPE cells under oxidative stress", "protocol": "Western blot analysis was performed by standard protocols (11), p53, p38, phospho-p38, GADPH, and TAK1; antibodies were obtained from Enco, Israel.\nThe p53 protein is known to play a critical role in cell-cycle regulation, DNA repair, and programmed cell death (14, 15). In view of this knowledge, and given the above-described observation that TAK1 inhibition reduced apoptosis, the expression of p53 in RPE cells was examined."}, "RPE cells [3]": {"tested_on": "RPE cells", "assay": "RPE cell size quantification (hypertrophy)", "conditions": "oxidative stress with TAK-1 inhibition; N=40 cells", "protocol": "N=40 cells for each treatment. One of the hallmarks of RPE senescence is cellular hypertrophy. RPE cell size is approximately […]; but upon oxidative stress or genetic mutation RPE cells can undergo enlargement."}, "RPE cells [4]": {"tested_on": "RPE cells", "assay": "SA-β-gal staining (senescence marker)"}, "RPE cells [5]": {"tested_on": "RPE cells", "assay": "Conditioned media (SASP) applied on fresh RPE cells, morphology", "protocol": "FIG. 5 presents photographs showing that TAK1 inhibition contributes to the SASP of the RPE cells, causing hypertrophy and dysfunction. RPE cells were grown with the TAK1 inhibitor and/or H2O2 ([…]) or without treatment. After 2 weeks, conditioned media from the differently treated cells were centrifuge and the supernatants was employed on new freshly cells. Representative photographs of fresh RPE cells treated for 72 hours with the indicated conditioned media are shown. Scale bar=50 μm.\nThe most significant effect of senescence, is the acquisition of a senescence-associated secretory phenotype (SASP). SASP can convert senescent cells to proinflammatory cells that promote the secretion of chemokines and cytokines that can affect the microenvironment, including in the human retina (16, 17). To examine the role of TAK1 in this process, RPE cells were treated with TAK1 inhibitor or with H2O2, alone or in combination. After 2 weeks, the media was collected from the three separate treatments, centrifuged and the supernatants (conditioned media) were applied on fresh RPE cells for 72 hours."}, "RPE cells [6]": {"tested_on": "RPE cells", "assay": "Anisomycin toxicity to RPE cells (cellular morphology 72 hours post-treatment)", "conditions": "low levels, 5 minute treatment", "protocol": "To determine possible toxicity of anisomycin to RPE cells, RPE cells were treated with anisomycin at different concentration for 5 minute periods. Following treatment, the medium was replaced and fresh medium was added. 72 hours post-treatment, the cells were photographed. […] Their viability was then assayed by the XTT assay."}, "[7]": {"conditions": "medium from cells treated 2 weeks with the single agent"}}, "data": [{"smiles": "COc1cc(O)c2c(c1)/C=C/C[C@H](O)[C@H](O)C(=O)/C=C\\C[C@H](C)OC2=O", "note": "[5Z-7-oxozeaenol]", "values": [{"measurement": "G2/M arrest under oxidative stress", "setting": "RPE cells (ARPE-19) [1]; TAK1 inhibition prior to H2O2 treatment", "result": "reduced"}, {"measurement": "percentage of cells at the G0/G1 stage", "setting": "RPE cells (ARPE-19) [1]; TAK1 inhibitor 1 μM, without H2O2", "result": 89, "unit": "%"}, {"measurement": "number of apoptotic cells as a percentage of the total number", "setting": "RPE cells (ARPE-19) [2]; TAK1 inhibitor 1 μM 1 hour prior to H2O2 200 μM, FACS after 24 hours", "result": 24, "unit": "%"}, {"measurement": "proliferation rate (optical density)", "setting": "ARPE-19 cells; 5Z-7-oxozeaenol 1 μM pretreatment 1 hour, versus untreated cells peaking on day 4", "result": "slower proliferation rate"}, {"measurement": "p53 expression levels over a longer period", "setting": "p53, phospho-p38; TAK1 inhibition, days", "result": "reduced p53 expression levels slightly more than the untreated cells"}, {"measurement": "p38 phosphorylation", "setting": "p53, phospho-p38; TAK1 inhibitor 1 μM pretreatment, oxidative stress", "result": "inhibition of p38 phosphorylation"}, {"measurement": "time of p53 expression peak", "setting": "p53, phospho-p38; pretreated with TAK1 inhibitor 1 μM, oxidative stress, control peak after 60 min", "result": 10, "unit": "min"}, {"measurement": "cell size", "setting": "RPE cells [3]", "result": "increases cell size"}, {"measurement": "number of cells expressing SA-β-gal", "setting": "RPE cells [4]; TAK1 inhibitor alone, relative to untreated cells", "result": "dramatically increased"}, {"measurement": "SA-β-gal expression", "setting": "RPE cells [4]; TAK1 inhibitor pretreatment then oxidative stress (200 μM H2O2 1 hour), days 13 and 16", "result": "strongly increased"}, {"measurement": "phenotype of fresh RPE cells after 72 hours with conditioned medium", "setting": "RPE cells [5]; [7]", "result": "hypertrophic phenotype similar to that of senescent cells"}, {"measurement": "phenotype of fresh RPE cells after 72 hours with conditioned medium", "setting": "RPE cells [5]; medium from cells treated with both TAK1 inhibitor and H2O2", "result": "aberrant morphology similar to that of atrophic RPE cells"}]}, {"smiles": "CC1=C(/C=C/C(C)=C/C=C/C(C)=C/c2cc(/C=C/C=C(C)/C=C/C3=C(C)CCCC3(C)C)cc[n+]2CCO)C(C)(C)CCC1", "note": "[A2E]", "values": [{"measurement": "senescent phenotype", "setting": "RPE cells [4]; A2E 5 μM added to cultured RPE cells", "result": "increases the senescent phenotype"}]}, {"smiles": "OO", "note": "[H2O2]", "values": [{"measurement": "G2/M arrest", "setting": "RPE cells (ARPE-19) [1]; H2O2 treatment alone", "result": "high levels of G2/M arrest"}, {"measurement": "number of apoptotic cells as a percentage of the total number", "setting": "RPE cells (ARPE-19) [2]; H2O2 alone (200 μM), untreated cells 1.25%", "result": 31, "unit": "%"}, {"measurement": "phenotype of fresh RPE cells after 72 hours with conditioned medium", "setting": "RPE cells [5]; [7]", "result": "hypertrophic phenotype similar to that of senescent cells"}]}, {"smiles": "COc1ccc(C[C@H]2NC[C@H](O)[C@H]2OC(C)=O)cc1", "note": "[anisomycin, (2R,3S,4S)-4-hydroxy-2-(4-methoxybenzyl)-pyrrolidin-3-yl acetate]", "values": [{"measurement": "rate of cell proliferation", "setting": "ARPE-19 cells; oxidative stress and anisomycin", "result": "did not display reduction"}, {"measurement": "toxicity to RPE cells", "setting": "RPE cells [6]", "result": "not toxic"}, {"measurement": "number of SA-β-Gal positive cells", "setting": "RPE cells [4]; H2O2 1 hour, 10 days growth, anisomycin 10 ng/ml 5 min, five more days, versus untreated cells exposed to oxidative stress", "result": "reduces the number of SA-β-Gal positive cells"}]}]}
